Measurements from patent US20050014690A1, “Styryl acrylonitrile compounds and their use to promote myelopoiesis” (priority 2001, published 2005).
“Also recorded” adds a separate entry of the source.

Experiments:
normal bone marrow cells [1] = assay: CFU-GEMM colony assay, normal bone marrow, compound present for 14 days; type: cell-based, human; details: for number of CFU-GM or CFU-C colonies: in vitro assays of human bone marrow cell growth, continual exposure for 14 days, about 1-20 μM; for toxicity to normal bone marrow cells: until concentrations of 20 μM or greater
Method: Treatment of normal bone marrow in culture with CR4. The CFU-GEMM assay was performed according to Fauser and Messner (Blood, 52(6) 1243-8,1978) and Messner and Fausser (Blut 41(5) 327-33, 1980) with some variations. In brief, heparinized bone marrow cells were layered over Percoll (1.077 gm/ml) and centrifuged at 400 g at 4° C. for 10 minutes to remove neutrophils and RBCs. The fractionated BM cells at 2×10^5 cells/ml were cultured in IMDM containing 0.9% (vol/vol) methylcellulose supplemented with 30% FCS or normal human plasma, a cocktail of cytokines containing G-CSF (10 ng/ml), IL-3 (40 U/ml), MGF (50 ng/ml), Erythropoietin (2u/ml) or TPO (10 ng/ml) and 5×10^−5M μ-2-mercaptoethanol. CR4 was added to the cells in concentrations indicated in FIG. 1 and the culture mixture was plated in 1 ml volumes into 35 mm petri dishes and incubated at 37° C., 5% CO2 in a humidified atmosphere. All cultures were evaluated at 14 days for the number of BFU-E colonies (defined as aggregates of more than 500 hemaglobinized cells or, 3 or more erythroid subcolonies), CFU-C colonies (defined as granulocyte or monocyte-macrophage cells or both), and CFU-GEMM colonies (a mixed population comprising of all elements). All control samples in this and other examples were treated with the matching concentration of the solvent (DMSO) for the compounds in the same medium or in the case of Example 21, PBS, as indicated. CFU-C stimulation with CR4 dose response. Bone marrow cells were prepared as in Example 15. CR4 was added to the cells at 10 or 20 μM. The culture mixture was plated in 1 ml volumes into 35 mm petri dishes and incubated at 37° C., 5% CO2 in a humidified atmosphere. All cultures were evaluated at 14 days for the number of CFU-C colonies (defined as granulocyte or monocyte-macrophage cells or both). […] Stimulation of CFU-C colony formation by CR11. Bone marrow cells were prepared as in Example 15. CR11 was added to the cells at 10 or 20 μM. The culture mixture was plated in 1 ml volumes into 35 mm petri dishes and incubated at 37° C., 5% […] in a humidified atmosphere. All cultures were evaluated at 14 days for the number of CFU-C colonies. […] CFU-C stimulation with CR19 dose response. Bone marrow cells were prepared as in Example 15. The culture mixture was plated in 1 ml volumes into 35 mm petri dishes and incubated at 37° C., 5% CO2 in a humidified atmosphere. All cultures were evaluated at 14 days for the number of BFU-E and CFU-C colonies.

[2] = tested on: cells of the myeloid lineage; assay: Promotion of myelopoiesis (general statement); details: in vitro, ex vivo and in vivo
transformed cell = assay: Transformed cell growth; type: cell-based
mice [3] = assay: Granulocytes in the spleen of treated mice; type: in vivo; details: for normal splenic granulocytes: daily injection, SCI mouse model; for non-specific damage to the animal: doses required to promote myelopoiesis, one month of continual administration
mice [4] = assay: Peripheral white blood cell count in mice; type: in vivo; details: for white blood cells in the peripheral blood: SCI mouse model, similar kinetics to G-CSF treated mice; for white blood cell counts: mice injected daily, peripheral blood after 14 and 17 days, FIG. 9
Method: Promotion of peripheral white blood cell count by CR11. Mice were injected daily with CR11. 250 μl of 400 μM CR11 was injected in PBS. Controls were injected with matching concentrations of CR11 solvent (DMSO) in PBS, or recombinant human G-CSF. After 14 and 17 days blood peripheral blood samples were taken and white blood cell counts determined. Results from each group were averaged.

[5] = tested on: CD34+ multipotent stem cells; assay: CFU-C colony formation from CD34+ selected stem cells; type: cell-based, human
normal bone marrow cells [6] = assay: CFU-C colony formation after short high dose exposure (2.5-5 hours), wash-out, 14 day culture; type: cell-based, human
Method: Stimulation of CFU-C colony formation with high dose CR4 for 2.5 hours. Bone marrow cells were layered over Percoll and centrifuged at 400 g at 4° C. for 10 minutes to remove neutrophils and RBCs. The cells were resuspended at 1×10^6/ml in complete medium with or without 50 μM CR4. The cells were incubated with the compound for two and a half hours at 37° C., 5% CO2. At the end of this period the cells were thoroughly washed in medium to remove CR4 and then cultured at 2×10^5 cells/ml in IMDM containing 0.9% (vol/vol) methylcellulose supplemented with 30% FCS or normal human plasma, and a cocktail of cytokines containing G-CSF (10 ng/ml), IL-3 (40 U/ml,), MGF (50 ng/ml), Erythropoietin or TPO and 5×10^−5M μ-2-mercaptoethanol. The culture mixture was plated in 1 ml volumes into 35 mm petri dishes and incubated at 37° C., 5% CO2 in a humidified atmosphere. All cultures were evaluated at 14 days for the number of CFU-C colonies. […] Stimulation of CFU-C colony formation with high dose CR4 for 2.5 and 5 hours. Bone marrow cells were prepared and treated as in Example 19, except exposure times of 2.5 and 5 hours were evaluated. The culture mixture was plated in 1 ml volumes into 35 mm petri dishes and incubated at 37° C., 5% CO2 in a humidified atmosphere. All cultures were evaluated at 14 days for the number of CFU-GM colonies (defined as granulocyte or macrophage cells or both). […] Stimulation of CFU-C colony formation with high dose CR4—two independent bone marrow samples (A&B). Bone marrow cells were prepared and treated as in Example 19, except that CR4 concentrations of 25 and 50 μM were evaluated. The culture mixtures was plated in 1 ml volumes into 35 mm petri dishes and incubated at 37° C., 5% CO2 in a humidified atmosphere. All cultures were evaluated at 14 days for the number of CFU-C colonies.

[7] = tested on: normal bone marrow mononuclear cells; assay: Long-term culture-initiating cell (LTC-IC) assay on stroma after pre-incubation; type: cell-based, human; details: for myeloproliferation in long-term cultures: pre-incubated with 50 uM for 5 hours, FIG. 11
Excerpt: The long-term BM culture system provides the means to investigate the proliferation and differentiation properties of primitive hematopoietic cells. To assess the long-term effects of CR4 on early progenitor cells the long-term culture-initiating cell (LTC-IC) assay was set up utilizing stromal microenvironment. Briefly, to obtain stromal cells bone marrow mononuclear cells were suspended in long-term culture (LTC) media (MyeloCult Stem Cell Technologies Inc.) supplemented with 10^−6 mol/L hydrocortisone sodium succinate (HSS; Sigma Aldrich Canada Ltd., Mississauga, Ont.,Canada). Approximately 1×10^7 cells were plated into 25 cm^2 tissue culture flasks (Becton Dickinson Labware, Franklin Lakes, N.J., USA) and incubated for 3 days at […] in a humidified atmosphere with 5% CO2 followed by incubation at 33° C. Cultures were re-fed weekly by replacing half of the medium. Following stromal confluency (3-6 weeks) cells were trypsinized and irradiated (1,500 cGy) using a Cs source. Stromal cells were again replated in LTC media at a concentration of 0.5-1.0×10^6 cells per 35 mm culture dishes (Nunc-Gibco BRL, Gaithersburg, Md.). Subcultured stroma was incubated for 2-3 days (at greater than 70% confluency) prior to co-culturing with fresh non-adherent overlay of hematopoietic cells. Normal bone marrow mononuclear cells, purified by centrifugation on Percoll, at a concentration of 1×10^6 cells/ml were pre-incubated with 50 uM CR4 or the drug diluent alone for a period of 5 hours at 37° C. in media. Cells were then washed twice to remove the compound and plated at 2×10^5 cells/ml for the short-term CFU-GEMM clonogenic assay (as previously described) while the remainder of the non-adherent cells were co-cultured with normal stroma (as described above) for long-term cultures. Long-term cultures were set up with two unrelated normal bone marrow samples (NBM1 and NBM2). Half of the non-adherent mononuclear cells were removed weekly from the stromal co-cultures and plated for colony-forming cells (CFU-GM) in the CFU-GEMM assay.

Question: For `N#C/C(=C\C=C\c1ccccc1)C(=O)NCc1ccc(O)c(O)c1` [CR19, (E,E)-2-(3,4 Dihydroxybenzylaminocarbonyl)-3-styrylacrylonitrile], which CFU-C colony formation (normal bone marrow cells [1]; 2.5 μM, 14 days, FIG. 8) is on record?
Answer: significantly increased

Question: And the “number of CFU-GM or CFU-C colonies” value (normal bone marrow cells [1])?
Answer: effective in increasing

Question: And the promoting myelopoiesis [2]?
Answer: capable of promoting myelopoiesis

Question: What about the transformed cell growth (transformed cell) of the same molecule?
Answer: do not promote

Question: Which promoting myelopoiesis [2] does the source give for `COc1cc(/C=C/C=C(\C#N)C(=O)NCc2ccccc2)ccc1O` [CR56, (E,E)-2-(benzylaminocarbonyl)-3-(3-methoxy-4-hydroxystyryl)acrylonitrile] here?
Answer: capable of promoting myelopoiesis

Question: With `COc1cc(/C=C/C=C(\C#N)C(=O)NCc2ccc(O)c(O)c2)cc(OC)c1O` [CR11, (E,E)-2-(3,4-Dihydroxybenzylaminocarbonyl)-3-(3,5-dimethoxy-4-hydroxystyryl)acrylonitrile] as the molecule, how does the normal splenic granulocytes (mice [3]) read?
Answer: tremendous increase

Question: And the “non-specific damage to the animal” value (mice [3])?
Answer: did not result in detectable non-specific damage

Question: What about the CFU-C colony formation (normal bone marrow cells [1]; 10 μM, 14 days) of the same molecule?
Answer: elevated colony numbers slightly

Question: What about the CFU-C colony formation (normal bone marrow cells [1]; 20 μM, 14 days) of the same molecule?
Answer: significantly increased

Question: What about the “toxicity to normal bone marrow cells” value (normal bone marrow cells [1]; 14 days) of the same molecule?
Answer: minimal toxicity

Question: What about the “number of CFU-GM or CFU-C colonies” value (normal bone marrow cells [1]) of the same molecule?
Answer: effective in increasing

Question: What about the promoting myelopoiesis [2] of the same molecule?
Answer: capable of promoting myelopoiesis

Question: And the transformed cell growth (transformed cell)?
Answer: do not promote

Question: What about the “white blood cells in the peripheral blood” value (mice [4]) of the same molecule?
Answer: Increased numbers

Question: And the “white blood cell counts” value (mice [4])?
Answer: significantly increased

Question: With `COc1cc(/C=C/C=C(C#N)C#N)cc(OC)c1O` [CR7, (E,E)-2-cyano-3-(3,5-dimethoxy-4-hydroxystyryl)acrylonitrile] as the molecule, how does the promoting myelopoiesis [2] read?
Answer: capable of promoting myelopoiesis

Question: What does the source list for `N#C/C(=C\C=C\c1ccc(O)c(O)c1)C(=O)NCc1ccccc1` [CR4, (E,E)-2-(Benzylaminocarbonyl)-3-(3,4-dihydroxystyryl)acrylonitrile]?
Answer: normal splenic granulocytes (mice [3]): tremendous increase; non-specific damage to the animal (mice [3]): did not result in detectable non-specific damage; granulocytes in the spleen (mice [3]; mice, one month, subcutaneous osmotic pump, theoretical 200 μg/kg/hr, FIG. 10): Increase in granulocytes; formation of CFU-C colonies from CD34+ stem cells ([5]; concentrations from 2.5-7.5 μM, 14 days, FIG. 2): significantly increased; myeloproliferation with purified CD34+ and hematopoietic stem cells ([5]; short-term CFU-GEMM assay, FIG. 12): can be induced; CFU-C colony formation (normal bone marrow cells [1]; 10 μM, 14 days): significantly stimulated; also recorded: significantly increased; BFU-E colony formation (normal bone marrow cells [1]; 10 μM, 14 days, FIG. 1): some inhibition; CFU-C colony formation (normal bone marrow cells [1]; 20 μM, 14 days): equivalent to the control; toxicity to normal bone marrow cells (normal bone marrow cells [1]; 14 days): minimal toxicity; CFU-C colony numbers (normal bone marrow cells [1]; concentrations from about 0.6 to 10 μM, 14 days, FIG. 1): stimulated; toxicity upon normal bone marrow (normal bone marrow cells [1]; doses up to 5 μM, 14 days, FIG. 1): negligible toxicity; number of CFU-GM or CFU-C colonies (normal bone marrow cells [1]): effective in increasing; promoting myelopoiesis [2]: capable of promoting myelopoiesis; transformed cell growth (transformed cell): do not promote; white blood cells in the peripheral blood (mice [4]): Increased numbers; CFU-C colony formation (normal bone marrow cells [6]; 5 μM (so in the source), five hours exposure, FIG. 6): increased significantly; CFU-C colony formation (normal bone marrow cells [6]; 5 μM (so in the source), two and a half hours exposure, FIG. 6): increased significantly; CFU-C colony formation (normal bone marrow cells [6]; 25 μM, five hours exposure, bone marrow sample A, FIG. 7A): increased significantly; CFU-C colony formation (normal bone marrow cells [6]; 50 μM, five hours exposure, bone marrow sample A, FIG. 7A): increased significantly; CFU-C colony formation (normal bone marrow cells [6]; 50 μM, five hours exposure, other bone marrow sample, FIG. 7B): increased significantly; CFU-C colony formation (normal bone marrow cells [6]; 50 μM, two and a half hours exposure, FIG. 5): increased significantly; myelopoiesis when the cells are cultured (normal bone marrow cells [6]; 25-50 μM for 2-5 hours): increased myelopoiesis; other normal bone marrow cells (normal bone marrow cells [6]; same doses (25-50 μM) over the same period (2-5 hours)): relatively unaffected; number of CFU-GM in long-term cultures ([7]; 50 μM for 5 hours): significant increase; myeloproliferation in long-term cultures ([7]; NBM1): significant increase; myeloproliferation in long-term cultures ([7]; NBM2): significant increase

Question: `COc1cc(/C=C/C=C(\C#N)C(=O)NCCc2ccccc2)cc(OC)c1O` [CR8, (E,E)-2-(Phenylethylamido)-3-(3,5-dimethoxy-4-hydroxystyryl)acrylonitrile] was tested. Which promoting myelopoiesis [2] did it give?
Answer: capable of promoting myelopoiesis

B1: G-CSF: recombinant human G-CSF (Granulocyte-Colony Stimulating Factor), injected as positive control (protein, UniProt P09919 31-207, looked up)
Granulocyte …: TPLGPASSLPQSFLLKCLEQVRKIQGDGAALQEKLVSECATYKLCHPEELVLLGHSLGIPWAPLSSCPSQALQLAGCLSQLHSGLFLYQGLLQALEGISPELGPTLDTLQLDVADFATTIWQQMEELGMAPALQPTQGAMPAFASAFQRRAGGVLVASHLQSFLEVSYRVLRHLAQP
Question: For B1, which “white blood cell counts” value (mice [4]) is on record?
Answer: significantly increased
